Laboratory results taken from paper PMC6522510 (Nature Communications, 2019).
Counter-ions that a name gives are not always drawn. Like-named read-outs stand apart in the source and are kept apart here. Peptide text beside a SMILES is read from it.

Assays:
Design in all cases: species or system AML cell lines (8); Primary HTS, single concentration about 10 uM, Cell Titer Glo viability; log10 luminescence, per cent inhibition relative to cycloheximide control
Conditions in all cases: 72 h, relative to cycloheximide control, log10 luminescence, inhibitor
CHRF288-11 = test system: CHRF288-11
CMK = test system: CMK
CMS = test system: CMS
M07e = test system: M07e
ML-2 = test system: ML-2
MOLM-13 = test system: MOLM-13
MV4-11 = test system: MV4-11
U937 = test system: U937

Compound	CHRF288-11 %inh (CHRF288-11) [%]	CMK %inh (CMK) [%]	CMS %inh (CMS) [%]	M07e %inh (M07e) [%]	ML-2 %inh (ML-2) [%]	MOLM-13 %inh (MOLM-13) [%]	MV4-11 %inh (MV4-11) [%]	U937 %inh (U937) [%]	CHRF288-11 %inh (CHRF288-11; CHRF288-11 %inh, 10 µM) [%]	CMK %inh (CMK; CMK %inh, 10 µM) [%]	CMS %inh (CMS; CMS %inh, 10 µM) [%]	M07e %inh (M07e; M07e %inh, 10 µM) [%]	ML-2 %inh (ML-2; ML-2 %inh, 10 µM) [%]	MOLM-13 %inh (MOLM-13; MOLM-13 %inh, 10 µM) [%]	MV4-11 %inh (MV4-11; MV4-11 %inh, 10 µM) [%]	U937 %inh (U937; U937 %inh, 10 µM) [%]
CC[N+](C)(CC)CCOC(=O)C(O)(c1ccccc1)C1CCCCC1 (stereo not drawn) [SJ000555718-1, OXYPHENONIUM BROMIDE]	89.25	0.4248	-0.491	-3.166	3.325	7.019	4.785	4.807	–	–	–	–	–	–	–	–
CC(C)(C)C(=O)Oc1ccc(S(=O)(=O)Nc2ccccc2C(=O)NCC(=O)O)cc1 [SJ000556638-2, SIVELESTAT SODIUM SALT]	–	–	–	–	–	–	–	–	2.891	-3.181	2.093	0.385	1.02	-1.5	2.862	-0.4301
CC(C)(C)C(=O)Oc1ccc(S(=O)(=O)Nc2ccccc2C(=O)NCC(=O)O)cc1 [SJ000556638-3, SIVELESTAT SODIUM SALT]	–	–	–	–	–	–	–	–	-1.426	-2.417	-1.314	0.5204	0.7785	-1.044	-1.916	-0.2709
Cc1ccc(Nc2nccc(N(C)c3ccc4c(C)n(C)nc4c3)n2)cc1S(N)(=O)=O [SJ000556680-2, PAZOPANIB | 786034 | GSK-786034 | GW-786034 | GW-786034B | PAZOPANIB HCL (GW786034 HCL)]	59.62	114.3	28.45	33.41	7.239	85.38	69.1	10.79	–	–	–	–	–	–	–	–
C/C(O)=C(\C#N)C(=O)Nc1ccc(C(F)(F)F)cc1 [SJ000556684-2, TERIFLUNOMIDE]	13.26	2.602	4.451	0.1279	6.049	8.514	2.233	-0.6256	–	–	–	–	–	–	–	–
Cc1[nH]c(/C=C2\C(=O)Nc3ccccc32)c(C)c1CCC(=O)O [SJ000556685-2, ORANTINIB | SU-6668 | TSU-68 | TSU-68 (SU6668, ORANTINIB)]	14.71	1.601	12.46	0.796	2.987	33.6	14.82	4.629	–	–	–	–	–	–	–	–
CN(C(=O)c1cc2ccccc2cc1C(=O)C(c1cccc2ccccc12)P(=O)(O)O)C1CCN(C(=O)c2ccccc2)CC1 (stereo not drawn) [SJ000556691-1, CATHEPSIN G INHIBITOR I]	9.27	10.35	2.107	0.0007022	0.3338	0.5105	1.483	-1.516	–	–	–	–	–	–	–	–
CO[C@@H]1[C@H](OC(=O)/C=C/C=C/C=C/C=C/C(=O)O)CC[C@]2(CO2)[C@H]1[C@@]1(C)O[C@@H]1CC=C(C)C [SJ000556696-1, FUMAGILLIN]	–	–	–	–	–	–	–	–	12.42	-0.5821	10.64	2.083	2.951	6.124	13.12	19.23
CO[C@@H]1[C@H](OC(=O)/C=C/C=C/C=C/C=C/C(=O)O)CC[C@]2(CO2)[C@H]1[C@@]1(C)O[C@@H]1CC=C(C)C [SJ000556696-2, FUMAGILLIN]	–	–	–	–	–	–	–	–	24.31	-0.114	7.757	1.679	3.251	10.06	9.134	20.26
CC(C)C[C@H](N)C(=O)N[C@H](C(=O)N[C@H](C(=O)N[C@@H](Cc1ccc(O)cc1)C(=O)N1CCC[C@H]1C(=O)N[C@@H](Cc1c[nH]c2ccccc12)C(=O)N[C@H](C(=O)O)[C@@H](C)O)C(C)C)C(C)C [SJ000556698-1, SPINORPHIN] (H-LVVYPWT-OH)	-1.007	0.1545	4.762	-3.453	-1.792	-0.8143	-0.248	0.1872	–	–	–	–	–	–	–	–
COc1ccc(S(=O)(=O)N2CCN(C(=O)c3ccc(-c4ccccc4)cc3)CC2C(=O)NO)cc1 (stereo not drawn) [SJ000556700-1, N-HYDROXY-1-(4-METHOXYPHENYL)SULFONYL-4-(4-BIPHENYLCARBONYL)PIPERAZINE-2-CARBOXAMIDE]	142.9	129.1	90.96	105.4	62.36	33.07	72.89	72.9	–	–	–	–	–	–	–	–
C[C@@H]1CN(c2c(F)c(N)c3c(=O)c(C(=O)O)cn(C4CC4)c3c2F)C[C@H](C)N1 [SJ000556731-1, SPARFLOXACIN]	–	–	–	–	–	–	–	–	-1.018	-4.344	-1.257	-0.05975	2.718	-3.504	7.588	1.66
C[C@@H]1CN(c2c(F)c(N)c3c(=O)c(C(=O)O)cn(C4CC4)c3c2F)C[C@H](C)N1 [SJ000556731-2, SPARFLOXACIN]	–	–	–	–	–	–	–	–	0.9037	6.161	-0.1151	-2.464	2.462	6.829	1.115	3.77
C=CC[N+]1([C@H]2C[C@H]3[C@@H]4CC[C@H]5C[C@H](O)[C@@H](N6CCOCC6)C[C@]5(C)[C@H]4CC[C@]3(C)[C@H]2OC(C)=O)CCCC1 [SJ000556732-1, ROCURONIUM BROMIDE]	-4.633	-9.307	-2.237	-1.372	-0.2233	-4.64	0.4653	-2.855	–	–	–	–	–	–	–	–
O=C(O[C@H]1C[C@H]2CC[C@@H](C1)[N+]21CCCC1)C(O)(c1ccccc1)c1ccccc1 [SJ000556733-1, TROSPIUM CHLORIDE]	–	–	–	–	–	–	–	–	1.082	-8.303	1.711	0.3246	2.085	-2.987	-0.2163	-2.05
O=C(O[C@H]1C[C@H]2CC[C@@H](C1)[N+]21CCCC1)C(O)(c1ccccc1)c1ccccc1 [SJ000556733-2, TROSPIUM CHLORIDE]	–	–	–	–	–	–	–	–	0.2164	-0.8375	-2.193	4.258	4.125	0.236	1.274	-0.2464
Cc1cn([C@@H]2C[C@@H](O)[C@H](CO)O2)c(=O)[nH]c1=O [SJ000556735-1, TELBIVUDINE]	5.146	-3.078	-2.406	0.6931	2.339	-1.046	3.878	2.103	–	–	–	–	–	–	–	–
CO[C@H]1/C=C/O[C@@]2(C)Oc3c(C)c(O)c4c(O)c(c(/C=N/N5CCN(C6CCCC6)CC5)c(O)c4c3C2=O)NC(=O)/C(C)=C\C=C\[C@H](C)[C@H](O)[C@@H](C)[C@@H](O)[C@@H](C)[C@H](OC(C)=O)[C@@H]1C [SJ000556738-1, RIFAPENTINE]	–	–	–	–	–	–	–	–	-0.1419	-0.8493	9.958	1.814	6.792	5.251	4.97	33.42
